{"source": "patent US8822410B2", "about": "“Tympanic membrane permeating ear drops and uses thereof” (Children's Medical Center Corporation, priority 2008, dated 2014)", "key": {"[1]": {"system": "H. influenza", "settings": "middle ear infections; cited from earlier work"}, "[2]": {"test": "pH of ciprofloxacin solutions", "assay_type": "physicochemical", "settings": "1% ciprofloxacin solution"}, "[3]": {"system": "S. pneumoniae", "settings": "middle ear infections; cited from earlier work"}}, "data": [{"smiles": "O=C(O)c1cn(C2CC2)c2cc(N3CCNCC3)c(F)cc2c1=O", "note": "[ciprofloxacin]", "values": [{"measurement": "minimum inhibitory concentration", "setting": "[1]", "value": "about 4 μg/mL"}, {"measurement": "pH of ciprofloxacin solution", "setting": "[2]", "value": "3-4"}, {"measurement": "minimum inhibitory concentration", "setting": "[3]", "value": "about 4 μg/mL"}]}]}
